Reference: paper PMC11475570, “Impact of Optimized Ku–DNA Binding Inhibitors on the Cellular and In Vivo DNA Damage Response” (Cancers, 2024)

How the values were obtained:
DNA-PK = biological target: T1, DNA-PK (Homo sapiens, UniProt P12956+P13010); experiment: DNA-PK kinase assay (phosphate transfer to p53 peptide); type: biochemical
T1 construct: made in house; Ku 70/80 from baculovirus-infected Sf9 cells
Experimental: The inhibitory activity of Ku-DBis on Ku-DNA binding was evaluated in vitro using Electrophoretic mobility shift assays (EMSA) with a [^32P]-labeled 30-bp duplex DNA and purified Ku 70/80. Kinase assays were performed to measure the DNA-dependent transfer of [^32P] from γ-[^32P] ATP to a synthetic p53-based peptide substrate, both as previously described. Both EMSA and DNA-PK inhibitor titration assays were performed in triplicate. Data were fit to standard binding curves using GraphPad Prism to determine IC50 values.

Ku80-null MEF = experiment: Bleomycin sensitization, CCK-8; type: cell-based; conditions: 20 μM 3392 for 24 h, then bleomycin 48 h
Experimental: (§1) page 20: Supplementary Figure S4. Ku-DBi 3392 sensitivity to bleomycin in wild-type (WT) and Ku 80-null MEFs cells. MEF cells were pre-treated with vehicle or 20 μM 3392 for 24 h and then increasing concentrations of bleomycin for 48 h after which cell viability was determined by CCK-8. Data are presented as the mean and SEM of triplicate determinations. (1 picture or pasted object on this page, not shown here)

Ku wild-type MEFs = experiment: Bleomycin sensitization, CCK-8; type: cell-based; conditions: 20 μM 3392 for 24 h, then bleomycin 48 h
Experimental: as §1

MDA-MB-436 = experiment: Bleomycin-sensitization activity, CCK-8; type: cell-based, Human; conditions: BRCA1 mutant MDA-MB-436
Experimental: (§2) Cell metabolism/viability was assessed using a mitochondrial metabolism assay (CCK-8) kit (Cell Counting Kit-8, Cat: CK04, Dojindo Laboratories, Rockville, MD, USA) as previously described. Briefly, cells were seeded at a density of 3 × 10^3 cells per well in 96-well plates and allowed to adhere and stretch for 18–24 h prior to treatment. Cells were pre-treated with Ku-DBi for 24 h before bleomycin treatments. Subsequently, cells were incubated for an additional 48 h at 37 °C after which CCK-8 assay was performed. The absorbance of the formed formazan product in each well was measured at 450 nm and compared to vehicle-treated controls to determine percent cell viability. The results represent the average and SEM of triplicate determinations.

MDA-MB-468 = experiment: Bleomycin-sensitization activity, CCK-8; type: cell-based, Human; conditions: BRCA1 wild-type MDA-MB-468
Experimental: as §2

T1 sequence (P12956 whole entry): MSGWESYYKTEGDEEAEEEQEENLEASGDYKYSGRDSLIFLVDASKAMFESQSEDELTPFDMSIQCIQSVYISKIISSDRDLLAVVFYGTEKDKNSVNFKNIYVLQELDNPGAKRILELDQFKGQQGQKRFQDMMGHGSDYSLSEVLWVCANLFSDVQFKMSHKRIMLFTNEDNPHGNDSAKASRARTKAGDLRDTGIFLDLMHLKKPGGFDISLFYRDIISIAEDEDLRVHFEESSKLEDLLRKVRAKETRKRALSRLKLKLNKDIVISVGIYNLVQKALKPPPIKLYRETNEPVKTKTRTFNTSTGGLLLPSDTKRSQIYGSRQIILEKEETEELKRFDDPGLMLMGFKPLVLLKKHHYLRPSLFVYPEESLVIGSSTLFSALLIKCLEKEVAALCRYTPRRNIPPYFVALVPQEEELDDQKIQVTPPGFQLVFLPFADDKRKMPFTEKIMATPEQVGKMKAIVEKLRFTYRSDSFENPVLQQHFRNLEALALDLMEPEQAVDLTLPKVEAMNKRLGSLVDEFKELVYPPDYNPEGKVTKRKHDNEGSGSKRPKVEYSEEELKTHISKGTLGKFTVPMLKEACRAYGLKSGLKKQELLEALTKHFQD
T1 sequence (P13010 whole entry): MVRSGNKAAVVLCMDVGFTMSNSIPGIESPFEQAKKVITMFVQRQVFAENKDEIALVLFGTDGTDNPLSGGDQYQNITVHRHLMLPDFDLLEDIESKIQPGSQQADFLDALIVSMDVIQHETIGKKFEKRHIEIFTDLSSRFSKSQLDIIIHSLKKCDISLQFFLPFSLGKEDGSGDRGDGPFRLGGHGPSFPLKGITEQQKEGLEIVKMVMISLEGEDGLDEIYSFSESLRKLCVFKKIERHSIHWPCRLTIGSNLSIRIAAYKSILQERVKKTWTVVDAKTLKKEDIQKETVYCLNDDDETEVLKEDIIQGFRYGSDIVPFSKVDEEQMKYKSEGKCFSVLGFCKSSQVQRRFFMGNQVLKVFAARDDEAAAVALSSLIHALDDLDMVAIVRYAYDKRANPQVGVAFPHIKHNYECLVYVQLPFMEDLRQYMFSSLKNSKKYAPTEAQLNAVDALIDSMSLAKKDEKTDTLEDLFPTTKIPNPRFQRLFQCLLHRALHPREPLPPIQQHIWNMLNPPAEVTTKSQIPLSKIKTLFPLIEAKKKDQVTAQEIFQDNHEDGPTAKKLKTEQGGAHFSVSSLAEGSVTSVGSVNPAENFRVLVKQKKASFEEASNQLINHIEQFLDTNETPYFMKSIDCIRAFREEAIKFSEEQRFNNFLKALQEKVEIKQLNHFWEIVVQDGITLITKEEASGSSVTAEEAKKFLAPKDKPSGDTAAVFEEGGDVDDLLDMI

## COc1ccc(-c2ccc(/C=C3\C(=O)N(c4cccc(C(=O)O)c4)c4ccccc43)o2)cc1C(=O)Nc1cccc(OC(F)(F)F)c1 [GL-3392]
DNA-PK
  DNA-PK inhibitory activity, fold more active than fluoro-modified counterparts (3618 and 3649): ~ 2.5 fold
DNA-PK; DNA-dependent phosphate transfer to synthetic p53 peptide, purified DNA-PK, mean and SD of triplicate
  IC50: 770 ± 190 nM
Ku80-null MEF
  Ku-DBi-dependent change in sensitivity to bleomycin: did not increase sensitivity
Ku wild-type MEFs
  Ku-DBi-dependent change in sensitivity to bleomycin: increases in the sensitivity to bleomycin were only observed in Ku wild-type cells
MDA-MB-436
  Change in sensitivity to bleomycin: decrease in sensitivity to bleomycin
MDA-MB-468
  Change in sensitivity to bleomycin: increase in sensitivity
